From patent US20030040504A1, “Ectoparasiticidal compositions and methods of their use” (priority 2001, published 2003)

How the values were obtained:
[1] = cited from earlier work
[2] = rat, guinea pig, rabbit, hamster, dog or human; cited from earlier work
[3] = at 60° C.; cited from earlier work
[4] = system: head lice; test: Viability of head lice on filter paper (Example 2); format: in vivo, head lice (Pediculus capitis)
Protocol: The viability of head lice was tested on filter paper under conditions as described in Example 1.

[5] = system: head lice collected from Bristol school children; test: Filter paper disk test of malathion, OVIDE lotion and Composition II on resistant head lice (Example 1); format: in vivo, head lice (Pediculus capitis); settings: for percentage activity of the lice, 100 being all alive, 0 being all dead: impregnated filter paper disk
Protocol: Following approval by the South and West Hospital research ethics committee, three primary schools in south Bristol, U.K. were contacted and arrangements were made with the headmaster/mistress and the school nurse to visit the schools and comb the hair of every child who has parental permission. Head lice were collected from children between 4 years and 11 years of age using plastic louse detector combs.
Head lice were placed and maintained at about 30° C. and about 70% relative humidity in a portable incubator for up to about two hours before being placed on filter paper test disks in small disposable petri dishes. These conditions of maintenance were the optimum for the lice off the human head. These head lice were then randomly distributed to petri dishes containing the control or impregnated disks and their activity was monitored by inspection over a four hour period. Since the portable incubator was designed to function either from the mains or a 12 volt source (cigarette lighter outlet in a car) the checking of lice activity was undertaken after leaving the school.
The disks, 5 cm in diameter, are paper, Whatman No. 1 Control paper disks were prepared by dipping papers into isopropanol and allowed to dry. Paper disks were prepared by dipping the paper into the solution of insecticide and allowed it to dry. Solutions used with the paper disks were 0.5% malathion in isopropanol, OVIDE® (malathion 0.5%) lotion, or Composition II disclosed herein. The dried paper disks were then stored overnight in air tight containers before using them the next day.
In the two subsequent tests, filter paper test disks were also used.
Values are given as percentage activity of the lice, 100 being all alive, 0 being all dead.

Compound: CC1=CCC(O)(C(C)C)CC1 (stereo not drawn) [1-terpinen-4-ol, 1-methyl-4-isopropyl-delta-cyclohexene-4-ol]
- symptoms observed with acute exposures in humans [1]: CNS depression; cyanosis in extremities; increased urine volume; anti-microbial activity (α-terpineol does not have this activity); and greatly decreased allergic contact eczema compared to dipentene

Compound: C=C(C)C1CC=C(C)CC1 (stereo not drawn) [Dipentene, 1-methyl-4-(1-methylethenyl)cyclohexene]
- metabolic conversion to α-terpineol or 1-terpinen-4-ol [2]: not metabolically converted to either α-terpineol or to 1-terpinen-4-ol
- symptoms observed with acute exposures in humans [1]: increased bile flow; hypothermia; increased cytochrome P450 content; hematuria (blood in urine); albuminuria (serum globulin in urine); tachycardia (rapid heart rate); increased allergic contact eczema; and no CNS involvement

Compound: c1ccc2c(c1)CCCC2 [1,2,3,4-tetrahydronaphthalene]
- symptoms observed with acute exposures in humans [1]: transient liver damage; production of green-gray urine; CNS excitant at low concentration; depressant at high concentration; nephrotoxic (renal system damage); cataracts; liver and kidney damage; and cytotoxic to ascites cells in culture during short-term mutagenicity testing
- Solubility in Water [3]: < 0.01 % weight

Compound: CCOC(=O)CC(SP(=S)(OC)OC)C(=O)OCC (stereo not drawn) [Malathion, [(dimethoxyphosphinothioyl)thio]butanedioic acid diethyl ester]
- Percent of Lice Still Alive ([4]; After 1 minute): 100%
- Percent of Lice Still Alive ([4]; After 5 minutes): 100%
- Percent of Lice Still Alive ([4]; After 10 minutes): 100%
- Percent of Lice Still Alive ([4]; After 20 minutes): 100%
- Percent of Lice Still Alive ([4]; After 30 minutes): 100%
- Percent of Lice Still Alive ([4]; After 60 minutes): 100%
- Percent of Lice Still Alive ([4]; After Minutes: None): 100%
- percentage activity of the lice, 100 being all alive, 0 being all dead ([5]; Time 0 mins): 100%
- percentage activity of the lice, 100 being all alive, 0 being all dead ([5]; Time 1 mins): 100%
- percentage activity of the lice, 100 being all alive, 0 being all dead ([5]; Time 5 mins): 100%
- percentage activity of the lice, 100 being all alive, 0 being all dead ([5]; Time 10 mins): 100%
- percentage activity of the lice, 100 being all alive, 0 being all dead ([5]; Time 20 mins): 100%
- percentage activity of the lice, 100 being all alive, 0 being all dead ([5]; Time 30 mins): 100%
- percentage activity of the lice, 100 being all alive, 0 being all dead ([5]; Time 60 mins): 100%
- percentage activity of the lice, 100 being all alive, 0 being all dead ([5]; Time 90 mins): 90%
- percentage activity of the lice, 100 being all alive, 0 being all dead ([5]; Time 120 mins): 80%
- percentage activity of the lice, 100 being all alive, 0 being all dead ([5]; Time 180 mins): 60%
- percentage activity of the lice, 100 being all alive, 0 being all dead ([5]; Time 240 mins): 50%
- lice killed ([5]; after about 4 hours): approximately 50%
